Reference: patent US5292732A, “Pyrrolopyrazine derivatives” (Hoffmann-La Roche Inc., priority 1991, dated 1994)
Structures can show the parent of a compound that is named as a salt.

Test: Preliminary oral toxicity testing in mice
Format: in vivo
Conditions: one mouse per dosage; for LLD (lowest lethal dose): death within 24 hrs.; for MTD: in vivo, survival, read-out: HTD (highest tolerated dose)
Source text: The toxicity of the compounds in accordance with the invention is investigated by orally administering different dosages of the dissolved or suspended compounds to mice. One mouse is used per dosage. The dosage is halved stepwise so that a dosage range of about 1.5 to the power of ten is covered. The results of this preliminary toxicity testing are reproduced in the form of two administered dosages.
The higher dosage (LLD=lowest lethal dose) led to death within 24 hrs., the lower dosage (HTD=highest tolerated dose) was survival. (Dosage data in miligram per kilogram body weight, administered orally).

| Structure (SMILES) | LLD (lowest lethal dose) | MTD |
| --- | --- | --- |
| CC1=NCCn2c1ccc2-c1ccc(OC2CCCC2)cc1.O=C(O)/C=C/C(=O)O [Example 37, 6-[p-(cyclopentyloxy)phenyl]-3,4-dihydro-1-methylpyrrolo[1,2-a]pyrazine fumarate (1:1)] | 625 miligram per kilogram body wei | 312 mg/kg |
| CC1=NCCn2c1ccc2-c1ccccc1.O=C(O)/C=C/C(=O)O [Example 9, 3,4-dihydro-1-methyl-6-phenylpyrrolo[1,2-a]pyrazine fumarate (1:1)] | 625 miligram per kilogram body wei | 312 mg/kg |
| CC1=NCCn2c1cc1c2-c2ccc(Cl)cc2CC1.O=C(O)/C=C/C(=O)O [Example 12, 3-chloro-5,6,10,11-tetrahydro-8-methylbenzo[g]pyrazino[1,2-a]indole fumarate (1:1)] | 250 miligram per kilogram body wei | 125 mg/kg |
| CC1NCCn2c1cc1c2-c2ccccc2CC1.O=C(O)/C=C/C(=O)O (stereo not shown) [Example 29, 5,6,8,9,10,11-hexahydro-8-methylbenzo[g]pyrazino[1,2-a]indole fumarate (1:1)] | 625 miligram per kilogram body wei | 312 mg/kg |
| CC1=NCCn2c1cc1c2-c2ccc(OC3CCCC3)cc2CC1.O=C(O)/C=C/C(=O)O [Example 53, 3-cyclopentyloxy-5,6,10,11-tetrahydro-8-methylbenzo[g]pyrazino[1,2-a]indole fumarate (1:1)] | 500 miligram per kilogram body wei | 250 mg/kg |
| CC1=NCCn2c1cc1c2-c2ccccc2CC1 [Example 10, 5,6,10,11-tetrahydro-8-methyl-benzo[g]pyrazino[1,2-a]indole fumarate (2:3)] | 312 miligram per kilogram body wei | 156 mg/kg |
| CC1NCCn2c1cc1c2-c2ccc(Cl)cc2CC1.O=C(O)/C=C/C(=O)O (stereo not shown) [Example 31, 3-chloro-5,6,8,9,10,11-hexahydro-8-methylbenzo[g]pyrazino[1,2-a]indole fumarate (1:1)] | 1000 miligram per kilogram body wei | 500 mg/kg |
| CC1=NCCn2c1ccc2-c1ccc(Cl)cc1.O=C(O)/C=C/C(=O)O [Example 2, 6-(p-chloro-phenyl)-3,4-dihydro-1-methylpyrrolo[1,2-a]pyrazine fumarate (1:1)] | 625 miligram per kilogram body wei | 312 mg/kg |
